Test results reported in patent publication US20230348376A1 (TEIJIN PHARMA LIMITED, priority 2020, published 2023).

Columns and labels:
human VDR = target: T1, human VDR (Homo sapiens, UniProt P11473); test: Evaluation of VDR transcription activity in human osteoblasts (HOS cells), luciferase reporter; conditions: Activity (EC50, VDR transcription activity), HOS cells transfected with human VDR, human RXRα and DR3 luciferase reporter; 21 hours
T1 sequence (P11473 1-427): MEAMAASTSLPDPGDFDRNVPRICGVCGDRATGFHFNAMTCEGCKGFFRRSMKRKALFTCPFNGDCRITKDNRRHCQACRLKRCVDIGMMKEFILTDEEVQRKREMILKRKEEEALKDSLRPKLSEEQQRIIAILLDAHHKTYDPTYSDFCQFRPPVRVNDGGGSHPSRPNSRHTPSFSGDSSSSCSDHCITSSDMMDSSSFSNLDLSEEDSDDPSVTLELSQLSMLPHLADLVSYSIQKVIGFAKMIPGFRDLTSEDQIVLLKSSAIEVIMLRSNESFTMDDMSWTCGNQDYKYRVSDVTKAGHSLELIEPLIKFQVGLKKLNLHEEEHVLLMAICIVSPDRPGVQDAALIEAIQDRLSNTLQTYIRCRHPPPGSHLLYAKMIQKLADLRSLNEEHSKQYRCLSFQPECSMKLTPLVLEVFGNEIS
T1 sequence (P19793 1-462 partner): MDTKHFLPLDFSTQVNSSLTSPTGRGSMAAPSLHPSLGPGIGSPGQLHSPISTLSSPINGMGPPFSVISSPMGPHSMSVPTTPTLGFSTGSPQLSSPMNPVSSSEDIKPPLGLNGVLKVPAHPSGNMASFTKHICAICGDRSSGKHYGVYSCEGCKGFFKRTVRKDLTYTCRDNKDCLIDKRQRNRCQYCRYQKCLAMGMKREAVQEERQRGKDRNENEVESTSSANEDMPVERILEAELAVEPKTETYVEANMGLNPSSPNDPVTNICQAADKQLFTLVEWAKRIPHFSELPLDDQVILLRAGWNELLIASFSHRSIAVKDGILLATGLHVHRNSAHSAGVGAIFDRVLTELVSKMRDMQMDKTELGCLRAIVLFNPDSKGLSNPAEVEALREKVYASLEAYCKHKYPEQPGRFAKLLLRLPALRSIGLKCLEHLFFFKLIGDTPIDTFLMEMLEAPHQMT

[1] = tested on: rat oligodendrocyte progenitor cells; test: Promotive activity of rat oligodendrocyte progenitor cell differentiation-1 (MBP gene expression, mRNA); assay type: cell-based; conditions: Rattus norvegicus, Oligodendrocyte progenitor cell, 96 h, read-out: promotive activity at T3 base (MBP gene expression; DMSO 0%, T3 100%), 4 days, MBP/β actin mRNA
Description: Regarding vitamin D derivatives, which was confirmed to act on the vitamin D receptor (VDR) in Example 352, the promotive activity of oligodendrocyte progenitor cell (OPC) differentiation was evaluated by MBP gene expression (mRNA).
A forebrain obtained from SD rat (Charles River Japan, 1 day old) was crushed with 70 μm Cell Strainer (Falcon #352350), and a cell suspension was prepared by collecting the cells in oligodendrocyte progenitor cell separation medium (20% FBS/2 mM Glutamax (Gibco #35050-061)/i mM sodium pyruvate (Gibco #11360-070)/1% penicillin-streptomycin (Invitrogen #15140-122)/DMEM (Gibco #11960-044)). The cell suspension was seeded in a poly-D-lysine coated T75 flask (Thermo Fisher Scientific #132704) and cultured for about 2 weeks. After culturing, the flask was shaken using a rotary shaker ([…] #WB-101SRC) for about 1 hour (37° C., 100 rpm), and the supernatant was discarded to remove microglia. Subsequently, oligodendrocyte progenitor cell separation medium was added to the flask, and the mixture was similarly shaken for about 22 hours (37° C., 200 rpm), and the supernatant was collected to prepare oligodendrocyte progenitor cells.
The oligodendrocyte progenitor cell prepared was suspended in a differentiation medium (2% B27 (Thermo Fisher Scientific, Inc. #17504-044)/1% penicillin-streptomycin (Invitrogen Corporation #15140-122)/10 ng/mL CNTF (PeproTech Inc. #AF-450-13)/DMEM (Gibco #11960-044)), and seeded on a 96-well plate coated with poly-L-ornithine (FUJIFILM Wako Pure Chemical Corporation #163-27421) under the condition of 0.65×10^4 cells/well, and on a 384-well plate under the condition of 2×10^3 cells/well using an automatic dispensing system (LABCYTE #Echo555). […] After culturing, the cells seeded on the 96-well plate were subjected to immunostaining against MBP using following methods: fixation (4% paraformaldehyde solution, 30 minutes, room temperature), PBS washing, membrane permeation treatment (0.1% Trion X-100 (SIGMA #X100-100ML)/PBS, 3 minutes, room temperature), blocking (3% BSA (SIGMA #A9647-10G)/PBS, 1 hour, room temperature), primary antibody reaction (MBP antibody (abcam plc #ab40390), 2.5 μg/mL, 4° C., 24 hours), PBS washing, secondary antibody reaction (Alexa488 anti-rabbit IgG (Thermo Fisher Scientific, Inc. #A-11034), 5 μg/mL, room temperature, 1 hour), PBS washing, and nuclear staining (Hoechst33342 (DOJINDO #NU043), 10 μg/mL, room temperature, 5 minutes). Subsequently, images of each well were acquired using a fluorescence microscope (KEYENCE CORPORATION #BZ-X800), the number of MBP-positive cells and Hoechst 33342-positive cells were measured using an image analysis application (KEYENCE CORPORATION #BZ-X800 Analyzer), and then the ratio (the number of MBP-positive cells/the number of Hoechst33342-positive cells) was calculated. The cells seeded on the 384-well plate were subjected to real-time PCR using Cells-to-CT 1-Step TaqMan Kit (Thermo Fisher Scientific, Inc. #A25602) and QuantStudio 12K Flex Real-Time PCR System (Thermo Fisher Scientific, Inc. #4472380). The experiment was performed in accordance with the protocol attached to the kit. MBP (Thermo Fisher Scientific, Inc. #Assay ID Rn00690616_ml) and β actin (Thermo Fisher Scientific, Inc. #Assay ID Rn00667869_ml) were used as primers, and the expression levels of each were measured and the ratio (MBP/β actin) was calculated.

| EC50 (human VDR) [nM] | Structure (SMILES) | activation at 1 µM [1] [%] |
| --- | --- | --- |
| 10 to 100 | C=C1[C@H](O)CC(=C/C=C2\CCC[C@]3(C)[C@@H]([C@H](C)CCN4CCO[C@@H](C)C4)CC[C@@H]23)C[C@H]1O [Compound D025, (1R,3R)-5-(2-((1R,3aS,7aR,E)-7a-methyl-1-((R)-4-((S)-2-methylmorpholino)butan-2-yl)octahydro-4H-inden-4-ylidene)ethylidene)-2-methylenecyclohexane-1,3-diol] | ≥ 20 |
| 10 to 100 | C=C1[C@H](O)CC(=C/C=C2\CCC[C@]3(C)[C@@H]([C@H](C)CCN4CCOC[C@@H]4C)CC[C@@H]23)C[C@H]1O [Compound D032, (1R,3R)-5-(2-((1R,3aS,7aR,E)-7a-methyl-1-((R)-4-((S)-3-methylmorpholino)butan-2-yl)octahydro-4H-inden-4-ylidene)ethylidene)-2-methylenecyclohexane-1,3-diol] | ≥ 20 |
| 1 to 10 | C[C@@H]1CCN(C[C@@H](C)[C@H]2CC[C@H]3/C(=C/C=C4C[C@@H](O)C[C@H](O)C4)CCC[C@]23C)C1 [Compound B004, (1R,3R)-5-(2-((1R,3aS,7aR,E)-7a-methyl-1-((S)-1-((R)-3-methylpyrrolidin-1-yl)propan-2-yl)octahydro-4H-inden-4-ylidene)ethylidene)cyclohexane-1,3-diol] | ≥ 20 |
| < 1 | C[C@H](CN1CCCC(O)(C(F)F)C1)[C@H]1CC[C@H]2/C(=C/C=C3C[C@@H](O)C[C@H](O)C3)CCC[C@]12C (single isomer, unassigned) [Compound C035a] | ≥ 20 |
| 1 to 10 | C=C1C(O)CC(=C/C=C2\CCC[C@]3(C)[C@@H]([C@H](C)CN4CC[C@](C)(O)C4)CC[C@@H]23)C[C@H]1O (stereo in doubt) [Compound B073, (1R,3S)-5-(2-((1R,3aS,7aR,E)-1-((S)-1-((S)-3-hydroxy-3-methylpyrrolidin-1-yl)propan-2-yl)-7a-methyloctahydro-4H-inden-4-ylidene)ethylidene)-2-methylenecyclohexane-1,3-diol] | ≥ 20 |
| 1 to 10 | C=C1[C@H](O)CC(=C/C=C2\CCC[C@]3(C)[C@@H]([C@H](C)CN4CCO[C@@H](C(F)F)C4)CC[C@@H]23)C[C@H]1O [Compound D008, (1R,3R)-5-(2-((1R,3aS,7aR,E)-1-((S)-1-((R)-2-(difluoromethyl)morpholino)propan-2-yl)-7a-methyloctahydro-4H-inden-4-ylidene)ethylidene)-2-methylenecyclohexane-1,3-diol] | ≥ 20 |
| 10 to 100 | C[C@H](CN1CC[C@@H](OC(F)(F)F)C1)[C@H]1CC[C@H]2/C(=C/C=C3CC(O)C[C@H](O)C3)CCC[C@]12C (stereo in doubt) [Compound B070, (1R,3S)-5-(2-((1R,3aS,7aR,E)-7a-methyl-1-((S)-1-((R)-3-(trifluoromethoxy)pyrrolidin-1-yl)propan-2-yl)octahydro-4H-inden-4-ylidene)ethylidene)cyclohexane-1,3-diol] | ≥ 20 |
| 10 to 100 | C=C1/C(=C\C=C2/CCC[C@]3(C)[C@@H]([C@H](C)CN4CC[C@H](OC(F)F)C4)CC[C@@H]23)C[C@@H](O)C[C@@H]1O [Compound B047, (1R,3S,Z)-5-(2-((1R,3aS,7aR,E)-1-((S)-1-((S)-3-(difluoromethoxy)pyrrolidin-1-yl)propan-2-yl)-7a-methyloctahydro-4H-inden-4-ylidene)ethylidene)-4-methylenecyclohexane-1,3-diol] | ≥ 20 |
| 10 to 100 | C=C1[C@H](O)CC(=C/C=C2\CCC[C@]3(C)[C@@H]([C@H](C)CN4CC[C@H](C)C4)CC[C@@H]23)C[C@H]1O [Compound B002, (1R,3R)-5-(2-((1R,3aS,7aR,E)-7a-methyl-1-((S)-1-((S)-3-methylpyrrolidin-1-yl)propan-2-yl)octahydro-4H-inden-4-ylidene)ethylidene)-2-methylenecyclohexane-1,3-diol] | ≥ 20 |
| 10 to 100 | C=C1[C@H](O)CC(=C/C=C2\CCC[C@]3(C)[C@@H]([C@H](C)CN4C[C@@H](C)OC[C@H]4C)CC[C@@H]23)C[C@H]1O [Compound D017, (1R,3R)-5-(2-((1R,3aS,7aR,E)-1-((S)-1-((2R,5R)-2,5-dimethylmorpholino)propan-2-yl)-7a-methyloctahydro-4H-inden-4-ylidene)ethylidene)-2-methylenecyclohexane-1,3-diol] | ≥ 20 |
| 10 to 100 | C=C1/C(=C\C=C2/CCC[C@]3(C)[C@@H]([C@H](C)CN4CC[C@@H](OC(F)F)C4)CC[C@@H]23)C[C@@H](O)C[C@@H]1O [Compound B048, (1R,3S,Z)-5-(2-((1R,3aS,7aR,E)-1-((S)-1-((R)-3-(difluoromethoxy)pyrrolidin-1-yl)propan-2-yl)-7a-methyloctahydro-4H-inden-4-ylidene)ethylidene)-4-methylenecyclohexane-1,3-diol] | ≥ 20 |
| 10 to 100 | C=C1/C(=C\C=C2/CCC[C@]3(C)[C@@H]([C@@H](C)CN4CCOCC4)CC[C@@H]23)C[C@@H](O)[C@H](C)[C@@H]1O [Compound D003, (1R,2S,3S,Z)-2-methyl-5-(2-((1R,3aS,7aR,E)-7a-methyl-1-((R)-1-morpholinopropan-2-yl)octahydro-4H-inden-4-ylidene)ethylidene)-4-methylenecyclohexane-1,3-diol] | ≥ 20 |
| 100 to 1000 | C=C1/C(=C\C=C2/CCC[C@]3(C)[C@@H]([C@H](C)CN4CC[C@H](CCC(F)F)C4)CC[C@@H]23)C[C@@H](O)C[C@@H]1O [Compound B059, (1R,3S,Z)-5-(2-((1R,3aS,7aR,E)-1-((S)-1-((S)-3-(3,3-difluoropropyl)pyrrolidin-1-yl)propan-2-yl)-7a-methyloctahydro-4H-inden-4-ylidene)ethylidene)-4-methylenecyclohexane-1,3-diol] | ≥ 20 |
